Experimental data reported in PubChem BioAssay (NCI).
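Five concentrations, 48 hours, 96-well plates. The concentration for full growth arrest is given as TGI.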

Assays:
Assay in all cases: inhibition of tumour cell growth, NCI panel, 48 h
SNB-78 CNS = test system: SNB-78 CNS
MALME-3M melanoma = test system: MALME-3M melanoma
A549 NSCLC = test system: A549 NSCLC
HOP-92 NSCLC = test system: HOP-92 NSCLC
UACC-62 melanoma = test system: UACC-62 melanoma
SK-MEL-5 melanoma = test system: SK-MEL-5 melanoma
UACC-257 melanoma = test system: UACC-257 melanoma
M19-MEL melanoma = test system: M19-MEL melanoma
NCI-H460 lung = test system: NCI-H460 lung
SN12C renal = test system: SN12C renal
DMS 114 small cell lung = test system: DMS 114 small cell lung
SR leukemia = test system: SR leukemia
COLO 205 colon = test system: COLO 205 colon
DMS 273 small cell lung = test system: DMS 273 small cell lung
SK-MEL-2 melanoma = test system: SK-MEL-2 melanoma
HT29 colon = test system: HT29 colon
KM12 colon = test system: KM12 colon
M14 melanoma = test system: M14 melanoma
K-562 leukemia = test system: K-562 leukemia
SF-295 CNS = test system: SF-295 CNS
HOP-62 NSCLC = test system: HOP-62 NSCLC
TK-10 renal = test system: TK-10 renal
RPMI-8226 leukemia = test system: RPMI-8226 leukemia
RXF 393 renal = test system: RXF 393 renal
SK-MEL-28 melanoma = test system: SK-MEL-28 melanoma
786-0 renal = test system: 786-0 renal
LOX IMVI melanoma = test system: LOX IMVI melanoma
OVCAR-3 ovarian = test system: OVCAR-3 ovarian
SF-268 CNS = test system: SF-268 CNS
OVCAR-8 ovarian = test system: OVCAR-8 ovarian
LXFL 529 NSCLC = test system: LXFL 529 NSCLC
SNB-19 CNS = test system: SNB-19 CNS
SW-620 colon = test system: SW-620 colon
UO-31 renal = test system: UO-31 renal
MOLT-4 leukemia = test system: MOLT-4 leukemia
NCI-H226 lung = test system: NCI-H226 lung
CAKI-1 renal = test system: CAKI-1 renal
OVCAR-5 ovarian = test system: OVCAR-5 ovarian
KM20L2 colon = test system: KM20L2 colon
ACHN renal = test system: ACHN renal
U251 CNS = test system: U251 CNS
HOP-18 NSCLC = test system: HOP-18 NSCLC
SNB-75 CNS = test system: SNB-75 CNS
HL-60(TB) leukemia = test system: HL-60(TB) leukemia
DLD-1 colon = test system: DLD-1 colon
NCI-H522 lung = test system: NCI-H522 lung
NCI-H23 lung = test system: NCI-H23 lung
SF-539 CNS = test system: SF-539 CNS
CCRF-CEM leukemia = test system: CCRF-CEM leukemia
HCT-116 colon = test system: HCT-116 colon
HCT-15 colon = test system: HCT-15 colon
OVCAR-4 ovarian = test system: OVCAR-4 ovarian
SK-OV-3 ovarian = test system: SK-OV-3 ovarian
IGROV1 ovarian = test system: IGROV1 ovarian
EKVX NSCLC = test system: EKVX NSCLC
HCC-2998 colon = test system: HCC-2998 colon
XF 498 CNS = test system: XF 498 CNS
A498 renal = test system: A498 renal

O=C(/C=C/c1ccc[nH]1)c1ccccc1
TGI (SNB-78 CNS): > 100 µM | TGI (MALME-3M melanoma): > 100 µM | TGI (A549 NSCLC): > 100 µM | TGI (HOP-92 NSCLC): > 100 µM | TGI (UACC-62 melanoma): > 100 µM | TGI (SK-MEL-5 melanoma): > 100 µM | TGI (UACC-257 melanoma): > 100 µM | TGI (M19-MEL melanoma): > 100 µM | TGI (NCI-H460 lung): > 100 µM | TGI (SN12C renal): > 100 µM | TGI (DMS 114 small cell lung): > 100 µM | TGI (SR leukemia): > 100 µM | TGI (COLO 205 colon): > 100 µM | TGI (DMS 273 small cell lung): > 100 µM | TGI (SK-MEL-2 melanoma): > 100 µM | TGI (HT29 colon): > 100 µM | TGI (KM12 colon): > 100 µM | TGI (M14 melanoma): > 100 µM | TGI (K-562 leukemia): > 100 µM | TGI (SF-295 CNS): > 100 µM | TGI (HOP-62 NSCLC): > 100 µM | TGI (TK-10 renal): > 100 µM | TGI (RPMI-8226 leukemia): > 100 µM | TGI (RXF 393 renal): > 100 µM | TGI (SK-MEL-28 melanoma): > 100 µM | TGI (786-0 renal): > 100 µM | TGI (LOX IMVI melanoma): > 100 µM | TGI (OVCAR-3 ovarian): > 100 µM | TGI (SF-268 CNS): > 100 µM | TGI (OVCAR-8 ovarian): > 100 µM | TGI (LXFL 529 NSCLC): > 100 µM | TGI (SNB-19 CNS): > 100 µM | TGI (SW-620 colon): > 100 µM | TGI (UO-31 renal): > 100 µM | TGI (MOLT-4 leukemia): > 100 µM | TGI (NCI-H226 lung): > 100 µM | TGI (CAKI-1 renal): > 100 µM | TGI (OVCAR-5 ovarian): > 100 µM | TGI (KM20L2 colon): > 100 µM | TGI (ACHN renal): > 100 µM | TGI (U251 CNS): > 100 µM | TGI (HOP-18 NSCLC): > 100 µM | TGI (SNB-75 CNS): > 100 µM | TGI (HL-60(TB) leukemia): > 100 µM | TGI (DLD-1 colon): > 100 µM | TGI (NCI-H522 lung): > 100 µM | TGI (NCI-H23 lung): > 100 µM | TGI (SF-539 CNS): > 100 µM | TGI (CCRF-CEM leukemia): > 100 µM | TGI (HCT-116 colon): > 100 µM | TGI (HCT-15 colon): > 100 µM | TGI (OVCAR-4 ovarian): > 100 µM | TGI (SK-OV-3 ovarian): > 100 µM

COc1cccc(-c2cc(C(=O)Nc3ccc(Cl)cc3)nc(N)n2)c1
TGI (SNB-78 CNS): > 100 µM | TGI (MALME-3M melanoma): > 100 µM | TGI (A549 NSCLC): > 100 µM | TGI (HOP-92 NSCLC): > 100 µM | TGI (UACC-62 melanoma): > 100 µM | TGI (SK-MEL-5 melanoma): > 100 µM | TGI (UACC-257 melanoma): > 100 µM | TGI (M19-MEL melanoma): > 100 µM | TGI (NCI-H460 lung): > 100 µM | TGI (SN12C renal): > 100 µM | TGI (DMS 114 small cell lung): > 100 µM | TGI (SR leukemia): > 100 µM | TGI (COLO 205 colon): 71.4 µM | TGI (DMS 273 small cell lung): > 100 µM | TGI (SK-MEL-2 melanoma): > 100 µM | TGI (HT29 colon): > 100 µM | TGI (KM12 colon): > 100 µM | TGI (M14 melanoma): > 100 µM | TGI (K-562 leukemia): > 100 µM | TGI (SF-295 CNS): > 100 µM | TGI (HOP-62 NSCLC): > 100 µM | TGI (TK-10 renal): > 100 µM | TGI (RPMI-8226 leukemia): > 100 µM | TGI (IGROV1 ovarian): > 100 µM | TGI (RXF 393 renal): > 100 µM | TGI (SK-MEL-28 melanoma): > 100 µM | TGI (786-0 renal): > 100 µM | TGI (LOX IMVI melanoma): > 100 µM | TGI (OVCAR-3 ovarian): > 100 µM | TGI (SF-268 CNS): > 100 µM | TGI (OVCAR-8 ovarian): > 100 µM | TGI (EKVX NSCLC): > 100 µM | TGI (LXFL 529 NSCLC): > 100 µM | TGI (SNB-19 CNS): > 100 µM | TGI (SW-620 colon): > 100 µM | TGI (UO-31 renal): > 100 µM | TGI (MOLT-4 leukemia): > 100 µM | TGI (NCI-H226 lung): > 100 µM | TGI (CAKI-1 renal): > 100 µM | TGI (OVCAR-5 ovarian): > 100 µM | TGI (HCC-2998 colon): > 100 µM | TGI (XF 498 CNS): > 100 µM | TGI (KM20L2 colon): > 100 µM | TGI (ACHN renal): > 100 µM | TGI (U251 CNS): > 100 µM | TGI (HOP-18 NSCLC): > 100 µM | TGI (SNB-75 CNS): 68.1 µM | TGI (HL-60(TB) leukemia): > 100 µM | TGI (DLD-1 colon): > 100 µM | TGI (NCI-H522 lung): > 100 µM | TGI (NCI-H23 lung): > 100 µM | TGI (SF-539 CNS): > 100 µM | TGI (CCRF-CEM leukemia): > 100 µM | TGI (HCT-116 colon): > 100 µM | TGI (HCT-15 colon): > 100 µM | TGI (OVCAR-4 ovarian): > 100 µM | TGI (SK-OV-3 ovarian): > 100 µM | TGI (A498 renal): > 100 µM
